According to patent US20260327578A1, “TRANSGLUTAMINASES AND USES THEREOF” (CURIE CO. INC., priority 2023, published 2026):

Tests used:
[1] = tested on: E. coli (ATCC 8739) / C. albicans (ATCC 10231); assay: MIC of permeabilizer co-dosants with and without Tgase variant; assay type: cell-based; conditions: for Co-Dosant MIC, with Tgase variant: with Tgase variant A3 (SEQ ID NO: 4): 12.5 ppm with polymyxin B, 200 ppm with chlorhexidine and with the mixture
Method: E. coli (ATCC 8739) and C. albicans (ATCC 10231) were acquired from the American Type Culture Collection (ATCC) (Manassas, VA) and maintained as −80° C. frozen glycerol stocks.
The following day, the cell density of the saturated cultures was calculated using OD600 and cultures were diluted to 104 to 10^6 CFU/mL in sterile Mueller Hinton broth to generate the inoculum, and 100 μL of the inoculum was combined with 100 μL of serially diluted Tgase variant A3 (SEQ ID NO: 4) at a range of 0.0001-0.05 weight percent. Growth curves were measured by OD600 on a BioTek® Synergy Plate Reader. All test conditions were performed in triplicate. MIC was determined to be […] (0.005% w/v) against E. coli for the enzyme described in SEQ ID NO: 4 using OD600.
For MIC determination of yeast cultures, C. albicans (ATCC 10231) was grown overnight (24 hours) in Sabouraud Dextrose broth at 30° C. The following day, the cell density of the saturated cultures was calculated using OD600 and cultures were diluted to 104 to 10^6 CFU/mL in sterile Sabouraud Dextrose broth media to generate the inoculum, and 100 μL of the inoculum was combined with 100 μL of serially diluted Tgase variant at a range of 0.0001-0.05 weight percent. The cultures were grown overnight at 30° C. and growth curves were measured by OD600 on a BioTek® Synergy Plate Reader. All test conditions were performed in triplicate. MIC was determined to be […] (0.005% w/v) against C. albicans for the enzyme described in SEQ ID NO: 4 using OD600.
Aseptilase activities of Tgase variant A3 (SEQ ID NO: 4) in combination with each of the three permeabilizer co-dosants, polymyxin B, chlorhexidine, and a 10000:4000:1 mixture by weight of sodium hexametaphosphate, phytic acid and chlorhexidine, were tested. […] The experiments were performed as described in Example 5. The co-dosants were added into Tgase variant A3 (SEQ ID NO: 4) solutions at concentrations of 0.125 g/L, 0.05 g/L, and 350 mM, respectively. The results are shown in Table 12 with Tgase concentrations reported within the table at the best MIC.

E. coli = assay: Preservative efficacy in body lotion against E. coli; assay type: cell-based; conditions: 0.005% in combinations, phenoxyethanol 0.7% alone, 0.3% combined, caprylyl glycol 0.7% alone, 0.35% combined, sodium benzoate 0.5% + EDTA 0.5%, 2% 2:1 propanediol:hexanediol, 0.5% CHA solution
Method: (§1) A vessel was filled with deionized water, placed under an overhead stirrer set to moderate mixing, and heated to 75-80° C. Glycerin was added to 2% and mixed until dissolved, followed by xanthan gum to 0.2%. At 75-80° C., cetearyl glucoside and cetearyl alcohol were added to 4% and 3%. Once both had melted fully, milk thistle seed oil was added and the batch was homogenized with a Silverson homogenizer with the standard emulsion screen until the batch had turned milky white. The batch was removed from heat and returned to propellor mixing with decreased speed to allow the emulsion to set up. At 40° C., pH was adjusted to pH 5.5-6.0 using citric acid or sodium hydroxide and split into several portions and allowed to finish cooling. Once cooled to room temperature, one portion of the body lotion was left unpreserved and the remaining portions were preserved with one or more substances selected from aseptilase, phenoxyethanol, caprylyl glycol, sodium benzoate, and EDTA. All samples were inoculated with E. coli (10^6 CFU/mL) and C. albicans (10^5 CFU/mL) and plated after 2 and 7 days.

C. albicans = assay: Preservative efficacy in body lotion against C. albicans; assay type: cell-based; conditions: 0.005% in combinations, phenoxyethanol 0.7% alone, 0.3% combined, caprylyl glycol 0.7% alone, 0.35% combined, sodium benzoate 0.5% + EDTA 0.5%, 2% 2:1 propanediol:hexanediol, 0.5% CHA solution
Method: as §1

collagen = assay: Collagen-modifying activity with FITC-gelatin or FITC-cadaverine; assay type: biochemical; conditions: 16 hours, pH 7.4
Method: Substrate specificity for collagen of Tgase variant A3 (SEQ ID NO: 4) was tested by allowing the variant to react with either fluorescein-labeled gelatin (FITC-Gelatin, to test protein-protein cross-linking) or fluorescein-labeled cadaverine (FITC-cadaverine, to test protein-small molecule cross-linking) with a collagen layer deposited on the bottom of a 96-well microtiter plate. Tgase variant A3 (SEQ ID NO: 4) and wild-type Tgase were diluted to 4-800 ppm in 50 mM phosphate buffer, pH 7.4, supplemented with 100 mM NaCl in 96-well collagen coated microtiter plates. Either FITC-gelatin or FITC-cadaverine was added to 1 g/L (final volume 100 μL) and the plates were sealed and incubated at either 37° C. or 50° C. for 16 hours. The reaction supernatants were carefully removed and then 200 μL 50 mM [COMPOUND LEFT OUT] mM NaCl, pH 7.4 buffer was added gently against the side of each well then carefully removed. This wash step was repeated. The plate-bound material was extracted by vigorously pipetting 100 μL dimethylsulfoxide into each well, then the extract was transferred into a black bottom 96-well plate. The fluorescence of the samples was measured at an excitation wavelength of 487 nm and an emission wavelength of 528 nm. The fluorescence signal is assumed to be proportionate to the concentration of fluorescent product extracted from the surface of the plate. For both FITC-gelatin and FITC-cadaverine, the fluorescence response per concentration enzyme was higher for wells treated with Tgase variant A3 (SEQ ID NO: 4) than for wells treated with wild-type Tgase (Table 11).

[2] = Thermal stability at 55 °C, specific activity by colorimetric hydroxamate assay; assay type: biochemical
Method: Tgase activity was measured herein using a colorimetric hydroxamate activity assay (Folk and Cole (1965) J Biol Chemistry 240 (7): 2951-2960). Briefly, the hydroxamate assay uses N-benzyloxycarbonyl-L-glutaminyl-glycine (ZQG) as a low molecular weight amine acceptor substrate and hydroxylamine as an amine donor. In the presence of catalytically active Tgase, the hydroxylamine is incorporated to form Z-glutamylhydroxamate-glycine, which develops a colored complex with iron (III), detectable at 525 nm after incubation at 37° C. for 5-200 minutes. The calibration was performed using L-glutamic acid gamma-monohydroxamate (Millipore® Sigma®) as a standard. One unit of Tgase was defined as the amount of enzyme that catalyzes formation of 1 μmol of the peptide derivative of gamma-glutamylhydroxylamine per minute. Activity of Tgase variants is depicted in Tables 2-4.
A commercially available wild-type Tgase (Ajinimoto®, Activa® TI formulation) formulated at 0.75-1.0% enzyme in maltodextrin was purchased from Amazon.com and dissolved in water at 20% w/v. The concentration of the mature Tgase in the solution was confirmed by high-performance liquid chromatography (HPLC) and the sample was further diluted to 0.1 g/L of enzyme. Following dilution, the enzyme was subjected to the hydroxamate assay as described in Example 4 to determine specific activity. The specific activity of the commercial wild-type Tgase compared to Tgase variant A3 (SEQ ID NO: 4), further comprising an N-terminal methionine, is shown in FIG. 1.
The thermal stability of Tgase variant A3 (SEQ ID NO: 4) compared to the commercial wild-type Tgase was evaluated by incubating the samples at 55° C. and testing the enzyme concentration and activity at various timepoints. Six timepoints were tested: 0, 30, 60, 120, 240, and 480 minutes.
The enzyme concentration was measured by HPLC. The samples were diluted 10-fold in 50 mM phosphate pH 7.4, 100 mM NaCl. The samples were tested by reverse phase using a Zorbax SB300-C8 column with 0.1% trifluoroacetic acid in water (MPA) and 0.08% trifluoroacetic acid in acetonitrile (MPB).
The activity was determined using the colorimetric activity assay described in Example 4A. The specific activity (U/mg) of the samples was calculated using the concentration of each sample as determined per Example 4D (results shown in Table 10).

In the case of `[H]/N=C(\N/C(=N/[H])NCCCCCCNC(=N)NC(=N)Nc1ccc(Cl)cc1)Nc1ccc(Cl)cc1` [Chlorhexidine, reference compound], the MIC ([1]; read-out: Co-Dosant MIC, without Tgase variant) is reported as 2 µg/mL and the “Co-Dosant MIC, with Tgase variant” value [1] is reported as 1 ppm.

For `CCCCCCC(O)CO` (stereo not shown) [caprylyl glycol], the “Preservative efficacy against E. coli, log reduction” value (E. coli; day 2, aseptilase 0.01% alone) was 5.00 log reduction in CFU/mL, the “Preservative efficacy against E. coli, log reduction” value (E. coli; day 7, aseptilase 0.01% alone) was 5.00 log reduction in CFU/mL and the “Preservative efficacy against C. albicans, log reduction” value (C. albicans; day 2, aseptilase 0.01% alone) was 1.18 log reduction in CFU/mL. The “Preservative efficacy against C. albicans, log reduction” value (C. albicans; day 7, aseptilase 0.01% alone) was 2.70 log reduction in CFU/mL.

In the case of `OCCOc1ccccc1` [phenoxyethanol], the “Preservative efficacy against E. coli, log reduction” value (E. coli; day 2, aseptilase 0.01% alone) is reported as 2.15 log reduction in CFU/mL, the “Preservative efficacy against E. coli, log reduction” value (E. coli; day 7, aseptilase 0.01% alone) is reported as 3.00 log reduction in CFU/mL and the “Preservative efficacy against C. albicans, log reduction” value (C. albicans; day 2, aseptilase 0.01% alone) is reported as 0.68 log reduction in CFU/mL. For the same molecule, the “Preservative efficacy against C. albicans, log reduction” value (C. albicans; day 7, aseptilase 0.01% alone) was 1.73 log reduction in CFU/mL.

With Polymyxin B [reference compound] the “Co-Dosant MIC, with Tgase variant” value [1] was 0.156 ppm and the “Co-Dosant MIC, without Tgase variant” value ([1]; without Tgase variant) was 0.625 ppm.

B1: Wild-type Tgase: commercially available wild-type Tgase (Ajinimoto, Activa TI formulation) formulated at 0.75-1.0% enzyme in maltodextrin (protein, UniProt P81453 77-407, looked up)
Protein-glutamine …: DSDDRVTPPAEPLDRMPDPYRPSYGRAETVVNNYIRKWQQVYSHRDGRKQQMTEEQREWLSYGCVGVTWVNSGQYPTNRLAFASFDEDRFKNELKNGRPRSGETRAEFEGRVAKESFDEEKGFQRAREVASVMNRALENAHDESAYLDNLKKELANGNDALRNEDARSPFYSALRNTPSFKERNGGNHDPSRMKAVIYSKHFWSGQDRSSSADKRKYGDPDAFRPAPGTGLVDMSRDRNIPRSPTSPGEGFVNFDYGWFGAQTEADADKTVWTHGNHYHAPNGSLGAMHVYESKFRNWSEGYSDFDRGAYVITFIPKSWNTAPDKVKQGWP
modifications: formulated in maltodextrin
In the case of B1, the “Fluorescence/[Enzyme]” value (collagen; FITC-Cadaverine, 37 °C) is reported as 6.7 RFU/ppm, the “Fluorescence/[Enzyme]” value (collagen; FITC-Cadaverine, 50 °C) is reported as 4.4 RFU/ppm and the “Fluorescence/[Enzyme]” value (collagen; FITC-Gelatin, 37 °C) is reported as 4.6 RFU/ppm. The “Fluorescence/[Enzyme]” value (collagen; FITC-Gelatin, 50 °C) was 6.8 RFU/ppm, the Specific activity ([2]; timepoint 0 min) was 23.3 U/mg and the Specific activity ([2]; timepoint 30 min) was 31.0 U/mg. For the same molecule, the Specific activity ([2]; timepoint 60 min) was 27.0 U/mg, the Specific activity ([2]; timepoint 120 min) was 29.3 U/mg and the Specific activity ([2]; timepoint 240 min) was 36.8 U/mg. It also gave a Specific activity ([2]; timepoint 480 min) of 21.2 U/mg.
